± gives the expanded uncertainty stated by the source.
Key:
[1] = 323.15 K; for mass density / viscosity: 101.33 kPa, Liquid; for viscosity: Capillary tube (Ostwald / Ubbelohde) method
[2] = xn = mol fraction of the nth substance listed; conditions: 323.15 K; for viscosity / mass density: 101 kPa; for viscosity: Capillary tube (Ostwald / Ubbelohde) method

CCCO [propan-1-ol]
Conditions	surface tension liquid-gas [mN/m]
[1], Ring tensiometer	21.36 ± 0.06

[1]
Conditions	mass density [kg/m3]	viscosity [mPa·s]
–	779.3 ± 0.51	1.115 ± 0.007

CCCCOC(C)=O [butyl ethanoate] + CCCO
[2], Liquid
Conditions	mass density [kg/m3]	viscosity [mPa·s]
x1 = 0.1	790.07 ± 0.48	0.879 ± 0.006
x1 = 0.2	799.51 ± 0.47	0.747 ± 0.005
x1 = 0.3	807.87 ± 0.46	0.662 ± 0.005
x1 = 0.4	815.42 ± 0.45	0.604 ± 0.004
x1 = 0.5	822.21 ± 0.44	0.566 ± 0.004
x1 = 0.6	828.46 ± 0.43	0.538 ± 0.004
x1 = 0.7	834.3 ± 0.42	0.521 ± 0.004
x1 = 0.8	839.71 ± 0.41	0.508 ± 0.004
x1 = 0.9	844.84 ± 0.4	0.502 ± 0.004

[2], Liquid, Ring tensiometer
Conditions	surface tension liquid-gas [mN/m]
x1 = 0.1	21.56 ± 0.33
x1 = 0.2	21.72 ± 0.33
x1 = 0.3	21.84 ± 0.34
x1 = 0.4	21.97 ± 0.34
x1 = 0.5	22.05 ± 0.34
x1 = 0.6	22.12 ± 0.34
x1 = 0.7	22.17 ± 0.34
x1 = 0.8	22.2 ± 0.34
x1 = 0.9	22.18 ± 0.34

O [water]
Conditions	surface tension liquid-gas [mN/m]
[1], ring detachment method	68.38 ± 0.04

CCCO [propan-1-ol] + O
[2], Liquid
Conditions	mass density [kg/m3]	viscosity [mPa·s]
x2 = 0.05	782.94 ± 0.49	1.121 ± 0.007
x2 = 0.1	786.61 ± 0.49	1.127 ± 0.007
x2 = 0.2	794.62 ± 0.47	1.15 ± 0.007
x2 = 0.3	803.64 ± 0.45	1.18 ± 0.008
x2 = 0.4	814.4 ± 0.43	1.219 ± 0.008
x2 = 0.5	827.68 ± 0.41	1.26 ± 0.008
x2 = 0.6	844.41 ± 0.38	1.291 ± 0.008
x2 = 0.7	865.87 ± 0.35	1.305 ± 0.008
x2 = 0.8	894.61 ± 0.31	1.256 ± 0.008
x2 = 0.9	935.04 ± 0.25	1.036 ± 0.006
x2 = 0.95	959.71 ± 0.22	0.827 ± 0.005

[2], Liquid, Ring tensiometer
Conditions	surface tension liquid-gas [mN/m]
x2 = 0.05	21.55 ± 0.33
x2 = 0.1	21.68 ± 0.33
x2 = 0.2	21.93 ± 0.34
x2 = 0.3	22.29 ± 0.34
x2 = 0.4	22.68 ± 0.34
x2 = 0.5	23.06 ± 0.35
x2 = 0.6	23.42 ± 0.35
x2 = 0.7	23.65 ± 0.35
x2 = 0.8	24.12 ± 0.36
x2 = 0.9	25.27 ± 0.37
x2 = 0.92	26.37 ± 0.39
x2 = 0.95	29.58 ± 0.43
x2 = 0.98	44.44 ± 0.6

CCCCOC(C)=O [butyl ethanoate] + O
[2]
Conditions	interfacial tension [mN/m]	mass density [kg/m3]	surface tension liquid-gas [mN/m]	viscosity [mPa·s]
Liquid mixture 1, Ring tensiometer, x2 = 0.9998	14.2 ± 0.3	–	–	–
Liquid mixture 2, Ring tensiometer, x2 = 0.1305	–	–	21.74 ± 0.43	–
Liquid, x2 = 0.02	–	850.18 ± 0.4	–	0.503 ± 0.004
Liquid, x2 = 0.04	–	850.62 ± 0.39	–	0.504 ± 0.004
Liquid, x2 = 0.06	–	851.07 ± 0.39	–	0.506 ± 0.004
Liquid, x2 = 0.08	–	851.57 ± 0.39	–	0.507 ± 0.004

[2], Liquid, Ring tensiometer
Conditions	surface tension liquid-gas [mN/m]
x2 = 0.02	22.14 ± 0.34
x2 = 0.04	22.17 ± 0.34
x2 = 0.06	22.2 ± 0.34
x2 = 0.08	22.25 ± 0.34

CCCCOC(C)=O [butyl ethanoate]
Conditions	surface tension liquid-gas [mN/m]
[1], Ring tensiometer	22.12 ± 0.06

[1]
Conditions	mass density [kg/m3]	viscosity [mPa·s]
–	849.75 ± 0.4	0.502 ± 0.004

Source: the NIST ThermoML archive (doi:10.1021/je900337a)
